Where “and” joins values, the source holds several entries; their conditions need not be identical. Identical values can stand only once.
Test system: OVCAR-8 complex spheroid, growth inhibition
Assay: Anticancer human tumor OVCAR-8 cell line growth inhibition [Asc];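 also: spheroids exposed to agents for 7 days before readout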;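 as to viability, T/C: percent viability relative to DMSO vehicle wells taken as 100%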
Settings: for viability, T/C: stronger effect = lower value
How it was run: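 Tumor cells were grown as multicellular spheroids with stromal HUVEC and mesenchymal stem cells and treated singly or in combination. Concentrations fell in half-log steps from the clinical Cmax, or from 10 microM where none was known.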

CNC(C)C(=O)NC1CN(S(=O)(=O)c2cccc(S(=O)(=O)N3CCC4CCC(C(=O)NC(c5ccccc5)c5ccccc5)N4C(=O)C(NC(=O)C(C)NC)C3)c2)CCC2CCC(C(=O)NC(c3ccccc3)c3ccccc3)N2C1=O (stereo not given)
IC50 (curve of compound): > 1 µM

Cc1nc(N2CCC3(CC2)COC(C)C3N)c(CO)nc1Sc1ccnc(N)c1Cl (stereo not given)
viability, T/C (compound 0.00949 µM): 111% and 101% and 103% | viability, T/C (compound 0.03 µM): 121% and 112% and 102% | viability, T/C (compound 0.0949 µM): 195% and 147% and 149% | viability, T/C (compound 0.3 µM): 239% and 173% and 192% | viability, T/C (compound 0.949 µM): 261% and 212% and 243% | viability, T/C (compound 3 µM): 261% and 201% and 223% | IC50 (curve of compound): > 3 µM

C#Cc1c(F)ccc2cc(O)cc(-c3ncc4c(N5CC6CCC(C5)N6)nc(OCC56CCCN5CC(F)C6)nc4c3F)c12 (stereo not given) + CCN1C(C(=O)NC23CCC(C(=O)O)(CC2)CC3)C(c2cccc(Cl)c2F)C2(C(=O)Nc3cc(Cl)ccc32)C12CCCCC2
IC50 (curve of first compound, second compound 0.00949 µM): > 10 µM | IC50 (curve of first compound, second compound 0.03 µM): > 10 µM | IC50 (curve of first compound, second compound 0.0949 µM): > 10 µM | IC50 (curve of first compound, second compound 0.3 µM): > 10 µM | IC50 (curve of first compound, second compound 0.949 µM): > 10 µM | IC50 (curve of first compound, second compound 3 µM): > 10 µM | viability, T/C (second compound 0.00949 µM, first compound 0.0316 µM): 91.7% | viability, T/C (second compound 0.00949 µM, first compound 0.1 µM): 86.9% | viability, T/C (second compound 0.00949 µM, first compound 0.316 µM): 93.3% | viability, T/C (second compound 0.00949 µM, first compound 1 µM): 95.2% | viability, T/C (second compound 0.00949 µM, first compound 3.16 µM): 95.5% | viability, T/C (second compound 0.00949 µM, first compound 10 µM): 89.3% | viability, T/C (second compound 0.03 µM, first compound 0.0316 µM): 114% | viability, T/C (second compound 0.03 µM, first compound 0.1 µM): 96.3% | viability, T/C (second compound 0.03 µM, first compound 0.316 µM): 85.1% | viability, T/C (second compound 0.03 µM, first compound 1 µM): 97.3% | viability, T/C (second compound 0.03 µM, first compound 3.16 µM): 90.1% | viability, T/C (second compound 0.03 µM, first compound 10 µM): 91.5% | viability, T/C (second compound 0.0949 µM, first compound 0.0316 µM): 93.2% | viability, T/C (second compound 0.0949 µM, first compound 0.1 µM): 82.2% | viability, T/C (second compound 0.0949 µM, first compound 0.316 µM): 94.4% | viability, T/C (second compound 0.0949 µM, first compound 1 µM): 84% | viability, T/C (second compound 0.0949 µM, first compound 3.16 µM): 101% | viability, T/C (second compound 0.0949 µM, first compound 10 µM): 101% | viability, T/C (second compound 0.3 µM, first compound 0.0316 µM): 79.5% | viability, T/C (second compound 0.3 µM, first compound 0.1 µM): 86.8% | viability, T/C (second compound 0.3 µM, first compound 0.316 µM): 84.2% | viability, T/C (second compound 0.3 µM, first compound 1 µM): 91.7% | viability, T/C (second compound 0.3 µM, first compound 3.16 µM): 96.5% | viability, T/C (second compound 0.3 µM, first compound 10 µM): 98.2% | viability, T/C (second compound 0.949 µM, first compound 0.0316 µM): 93.5% | viability, T/C (second compound 0.949 µM, first compound 0.1 µM): 107% | viability, T/C (second compound 0.949 µM, first compound 0.316 µM): 90.8% | viability, T/C (second compound 0.949 µM, first compound 1 µM): 92.3% | viability, T/C (second compound 0.949 µM, first compound 3.16 µM): 103% | viability, T/C (second compound 0.949 µM, first compound 10 µM): 107% | viability, T/C (second compound 3 µM, first compound 0.0316 µM): 108% | viability, T/C (second compound 3 µM, first compound 0.1 µM): 93% | viability, T/C (second compound 3 µM, first compound 0.316 µM): 105% | viability, T/C (second compound 3 µM, first compound 1 µM): 115% | viability, T/C (second compound 3 µM, first compound 3.16 µM): 110% | viability, T/C (second compound 3 µM, first compound 10 µM): 112%

Reference: PubChem BioAssay AID1963437 (Molecular Pharmacology Branch, DTP, NCI, 2024)
